Experimental findings from US10072011B2, “Substituted bridged urea analogs as sirtuin modulators” (GlaxoSmithKline Intellectual Property (No.2) Limited, priority 2014, dated 2018) are described below.

The experiment deals with T1, SIRT1 (Homo sapiens, UniProt Q96EB6).
T1 sequence (Q96EB6 1-747): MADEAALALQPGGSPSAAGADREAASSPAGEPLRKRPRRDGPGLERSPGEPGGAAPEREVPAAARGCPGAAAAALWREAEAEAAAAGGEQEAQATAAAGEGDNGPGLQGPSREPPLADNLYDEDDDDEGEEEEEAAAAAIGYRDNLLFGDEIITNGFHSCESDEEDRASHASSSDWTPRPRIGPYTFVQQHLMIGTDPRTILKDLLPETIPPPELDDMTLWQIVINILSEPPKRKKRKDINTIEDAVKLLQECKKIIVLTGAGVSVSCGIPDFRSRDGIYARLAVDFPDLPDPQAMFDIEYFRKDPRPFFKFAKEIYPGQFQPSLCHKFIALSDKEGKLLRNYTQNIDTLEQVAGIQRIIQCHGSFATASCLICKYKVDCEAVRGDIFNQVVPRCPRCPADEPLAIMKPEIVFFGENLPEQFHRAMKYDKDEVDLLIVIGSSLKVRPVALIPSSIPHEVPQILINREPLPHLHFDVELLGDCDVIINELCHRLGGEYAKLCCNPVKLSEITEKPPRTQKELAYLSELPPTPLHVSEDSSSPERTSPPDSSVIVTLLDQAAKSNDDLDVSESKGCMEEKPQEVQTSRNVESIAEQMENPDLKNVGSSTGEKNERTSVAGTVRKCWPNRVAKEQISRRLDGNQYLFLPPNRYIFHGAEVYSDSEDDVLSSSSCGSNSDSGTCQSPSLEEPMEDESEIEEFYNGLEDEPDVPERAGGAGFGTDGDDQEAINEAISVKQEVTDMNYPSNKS
Nature of the experiment: Trp mass spectrometry assay of SIRT1 activation (Ac-R-H-K-K(Ac)-W-NH2 peptide). The settings on record: Trp peptide 0.5 μM, 120 μM βNAD+, 10 nM SIRT1, 25 min at 25° C.; for Emax: 25 min, read-out: TRP MAX RESP (percent maximum fold activation); for Emax / TRP MAX RESP (percent maximum fold activation): relative to control (100%). In kind it is biochemical. In a few lines: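 N-terminal His-tagged human SIRT1, expressed in BL21(DE3) and purified, was incubated 25 min with an acetylated Trp peptide and NAD plus test compound at varying concentrations, then quenched with formic acid. OAADPR or deacetylated peptide was quantified by mass spectrometry versus compound-free control; EC1.5 is the concentration giving 50% activity increase, with percent maximum activation.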

SMILES strings stand for the structures.

As for `C[C@@H](NC(=O)c1ccc2c(n1)N(C(=O)Nc1cc(NCCO)ccn1)[C@H]1CCN2C1)C(F)(F)F` [Example 309, (4S)—N5-(4-((2-hydroxyethyl)amino)pyridin-2-yl)-N7-((R)-1,1,1-trifluoropropan-2-yl)-3,4-dihydro-1,4-methanopyrido[2,3-b][1,4]diazepine-5,7(2H)-dicarboxamide], the Emax was less than 150% and the “TRP Activity (EC1.5, concentration of test compound that results in 150% activation of SIRT1)” value is “A (EC1.5<1 μM)”.
With `C[C@@H](NC(=O)c1ccc2c(n1)N(C(=O)Nc1ncc(F)cc1F)[C@H]1CCN2C1)C(F)(F)F` [Example 310, (4S)—N5-(3,5-difluoropyridin-2-yl)-N7-((R)-1,1,1-trifluoropropan-2-yl)-3,4-dihydro-1,4-methanopyrido[2,3-b][1,4]diazepine-5,7(2H)-dicarboxamide], the “TRP Activity (EC1.5, concentration of test compound that results in 150% activation of SIRT1)” value is reported as “B (EC1.5 1-25 μM)” and the “TRP MAX RESP (percent maximum fold activation)” value is “B (Fold Activation<150%)”.
Regarding `C=CCNC(=O)c1ccc2c(n1)N(C(=O)Nc1cc(OC[C@H](O)CO)ccn1)[C@H]1CCN2C1` [Example 315, (4S)—N7-allyl-N5-(4-((R)-2,3-dihydroxypropoxy)pyridin-2-yl)-3,4-dihydro-1,4-methanopyrido[2,3-b][1,4]diazepine-5,7(2H)-dicarboxamide], the “TRP Activity (EC1.5, concentration of test compound that results in 150% activation of SIRT1)” value was “B (EC1.5 1-25 μM)” and the “TRP MAX RESP (percent maximum fold activation)” value is “B (Fold Activation<150%)”.
On to `Cc1ccc2c(NC(=O)N3c4nc(C(=O)N[C@H](C)C(F)(F)F)c(Cl)cc4N4CC[C@H]3C4)n[nH]c2n1` [Example 316, (4S)-8-chloro-N5-(6-methyl-1H-pyrazolo[3,4-b]pyridin-3-yl)-N7-((R)-1,1,1-trifluoropropan-2-yl)-3,4-dihydro-1,4-methanopyrido[2,3-b][1,4]diazepine-5,7(2H)-dicarboxamide], for which the Emax is less than 150% and the “TRP Activity (EC1.5, concentration of test compound that results in 150% activation of SIRT1)” value was “B (EC1.5 1-25 μM)”.
Taken in the same sequence, the figures for `Cc1ncc(-c2cc(NC(=O)N3c4nc(C(=O)N[C@H](C)C(F)(F)F)ccc4N4CC[C@H]3C4)ncn2)o1` [Example 318, (4S)—N5-(6-(2-methyloxazol-5-yl)pyrimidin-4-yl)-N7-((R)-1,1,1-trifluoropropan-2-yl)-3,4-dihydro-1,4-methanopyrido[2,3-b][1,4]diazepine-5,7(2H)-dicarboxamide] were less than 150% and “A (EC1.5<1 μM)”.
Taken in the same sequence, the figures for `Cc1ncc(-c2cc(NC(=O)N3c4nc(C(=O)N[C@H](C)C(F)(F)F)ccc4N4CC[C@H]3C4)c(=O)n(C)c2)o1` [Example 319, (4S)—N5-(1-methyl-5-(2-methyloxazol-5-yl)-2-oxo-1,2-dihydropyridin-3-yl)-N7-((R)-1,1,1-trifluoropropan-2-yl)-3,4-dihydro-1,4-methanopyrido[2,3-b][1,4]diazepine-5,7(2H)-dicarboxamide] were less than 150% and “A (EC1.5<1 μM)”.
The like results for `CC(=O)Nc1ccnc(NC(=O)N2c3nc(C(=O)N[C@H](C)C(F)(F)F)ccc3N3CC[C@H]2C3)c1` [Example 320, (4S)—N5-(4-acetamidopyridin-2-yl)-N7-((R)-1,1,1-trifluoropropan-2-yl)-3,4-dihydro-1,4-methanopyrido[2,3-b][1,4]diazepine-5,7(2H)-dicarboxamide] were, in that order, less than 150% and “A (EC1.5<1 μM)”.
On to `C[C@@H](NC(=O)c1ccc2c(n1)N(C(=O)Nc1cc(-c3cn[nH]c3)ccn1)[C@H]1CCN2C1)C(F)(F)F` [Example 321, (4S)—N5-(4-(1H-pyrazol-4-yl)pyridin-2-yl)-N7-((R)-1,1,1-trifluoropropan-2-yl)-3,4-dihydro-1,4-methanopyrido[2,3-b][1,4]diazepine-5,7(2H)-dicarboxamide], for which the Emax is less than 150% and the “TRP Activity (EC1.5, concentration of test compound that results in 150% activation of SIRT1)” value is on record as “A (EC1.5<1 μM)”.
The like results for `C[C@@H](NC(=O)c1ccc2c(n1)N(C(=O)Nc1cc(-c3ncn[nH]3)ccn1)[C@H]1CCN2C1)C(F)(F)F` [Example 322, (4S)—N5-(4-(1H-1,2,4-triazol-5-yl)pyridin-2-yl)-N7-((R)-1,1,1-trifluoropropan-2-yl)-3,4-dihydro-1,4-methanopyrido[2,3-b][1,4]diazepine-5,7(2H)-dicarboxamide] were, in that order, less than 150% and “A (EC1.5<1 μM)”.
Taken in the same sequence, the figures for `C[C@@H](NC(=O)c1ccc2c(n1)N(C(=O)Nc1cc(-c3cc[nH]n3)ccn1)[C@H]1CCN2C1)C(F)(F)F` [Example 323, (4S)—N5-(4-(1H-pyrazol-3-yl)pyridin-2-yl)-N7-((R)-1,1,1-trifluoropropan-2-yl)-3,4-dihydro-1,4-methanopyrido[2,3-b][1,4]diazepine-5,7(2H)-dicarboxamide] were less than 150% and “A (EC1.5<1 μM)”.
On to `C[C@@H](NC(=O)c1ccc2c(n1)N(C(=O)Nc1cc(NS(C)(=O)=O)ccn1)[C@H]1CCN2C1)C(F)(F)F` [Example 324, (4S)—N5-(4-(methylsulfonamido)pyridin-2-yl)-N7-((R)-1,1,1-trifluoropropan-2-yl)-3,4-dihydro-1,4-methanopyrido[2,3-b][1,4]diazepine-5,7(2H)-dicarboxamide], for which the Emax is less than 150% and the “TRP Activity (EC1.5, concentration of test compound that results in 150% activation of SIRT1)” value was “A (EC1.5<1 μM)”.
Taken in the same sequence, the figures for `C[C@@H](NC(=O)c1ccc2c(n1)N(C(=O)Nc1cc(-c3cnc(C4CC4)s3)ccn1)[C@H]1CCN2C1)C(F)(F)F` [Example 325, (4S)—N5-(4-(2-cyclopropylthiazol-5-yl)pyridin-2-yl)-N7-((R)-1,1,1-trifluoropropan-2-yl)-3,4-dihydro-1,4-methanopyrido[2,3-b][1,4]diazepine-5,7(2H)-dicarboxamide] were less than 150% and “A (EC1.5<1 μM)”.
